Assay results published in US4673684A, “Amide derivatives and 5-lipoxygenase inhibitors containing the same as an active ingredient” (Terumo Corporation, priority 1984, dated 1987).

biological target: T1, 5-lipoxygenase (Mus musculus, UniProt P48999); assay: 5-Lipoxygenase-inhibiting Activity (decrease in 5-HETE and LTB4 formed from radiolabelled arachidonic acid, enzyme solution from mouse mastcytoma cells P-815); assay type: biochemical; conditions: 5-HETE and LTB4 formation; mouse mastcytoma P-815 enzyme solution; 37° C., 5 min; pH 7.4; with indomethacin; read-out: 50% Inhibitory concentration IC50
T1 construct: The supernatant is used as a 5-lipogenase enzyme solution; endogenous in cells
T1 sequence (P48999 1-674): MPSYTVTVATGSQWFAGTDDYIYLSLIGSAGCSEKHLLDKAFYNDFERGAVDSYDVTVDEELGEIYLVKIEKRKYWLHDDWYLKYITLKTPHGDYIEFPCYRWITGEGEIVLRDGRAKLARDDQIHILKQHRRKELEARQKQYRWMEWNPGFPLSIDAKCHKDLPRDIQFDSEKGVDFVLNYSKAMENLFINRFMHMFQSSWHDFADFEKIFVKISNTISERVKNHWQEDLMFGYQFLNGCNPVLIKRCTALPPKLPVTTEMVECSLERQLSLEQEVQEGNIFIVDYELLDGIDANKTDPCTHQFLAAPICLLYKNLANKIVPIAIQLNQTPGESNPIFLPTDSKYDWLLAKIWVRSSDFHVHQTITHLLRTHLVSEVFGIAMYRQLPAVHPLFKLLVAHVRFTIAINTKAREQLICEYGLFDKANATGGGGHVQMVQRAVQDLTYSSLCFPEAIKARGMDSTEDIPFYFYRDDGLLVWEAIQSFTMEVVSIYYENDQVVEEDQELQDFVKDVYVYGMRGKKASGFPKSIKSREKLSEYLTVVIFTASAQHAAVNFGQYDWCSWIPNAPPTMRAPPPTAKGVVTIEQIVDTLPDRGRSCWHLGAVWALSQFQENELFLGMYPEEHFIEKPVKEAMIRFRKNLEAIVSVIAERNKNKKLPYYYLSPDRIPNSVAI
Procedure: Mouse mastcytoma cells P-815 are diluted in a culture solution, containing 90% Eagle Basic Medium (manufactured by Gibco Laboratories) to 5×10^4 cells/ml. The diluted solution is cultivated with shaking in air at 37° C. for 48 hours. Then, the culture solution is cooled with ice and centrifuged to collect the cells. The cells are suspended in a phosphate buffer solution at pH 7.4 at a concentration of 2×10^7 cells/ml. The suspension is treated in a ultrasonic cell disintegrater and then centrifuged at 10,000 r.p.m. for 10 min. The supernatant is used as a 5-lipogenase enzyme solution. In test tubes are placed 20 μl of radiolabelled arachidonic acid ([…]), indomethacin (2×10^-8 mol) and an amide derivative to be tested, respectively. To each of the test tubes are added 0.45 ml of a phosphate buffer solution, 0.45 ml of the above-prepared suspension, 0.45 ml of the above-prepared enzyme solution and 0.1 ml of 8 mM CaCl2 (calcium chloride). The mixture is reacted at 37° C. for 5 min. After cooled with ice, 60 μl of 1N-HCl (hydrochloric acid is added to the reaction mixture, which is then extracted with 8 ml of ethyl acetate. The extract is concentrated, and the concentrate is developed by spotting on a silica gel thin layer plate (Merck 60F 254). Measurement of the inhibitory activity is made by collecting fractions corresponding to lipoxygenase products 5-HETE (5(s)-hydroxy-6,8,11,14-eicosatetraenic acid) and LTB4 (leucotriene B4) and determining the radioactivity by a liquid scintillation counter. The lipoxygenase inhibiting activity is determined by decrease in the amount of the above-mentioned 5-lipoxygenaseproducts. […] 50% inhibitory concentration or 30% inhibitory concentration as indicated in the table means the concentration of an amide derivative required for reducing the amount of the above-mentioned 5-lipoxygenase products (5-HETE and LTB4) to 50% or 30% of the amount when the amount of 5-HETE and LTB4 produced in the absenced of the amide derivative is 100%.

Compared with COc1cc(/C=C/C(=O)NCCN2CCN(C(c3ccccc3)c3ccc(Cl)cc3)CC2)ccc1O (stereo not drawn) [Example 1, N-(p-chlorobenzhydryl)-N'-[2-{3-(3-methoxy-4-hydroxyphenyl)-2-propenoyl}-aminoethyl]piperazine], COc1cc(/C=C/C=C/C(=O)NCCN2CCN(C(c3ccccc3)c3ccc(Cl)cc3)CC2)ccc1O (stereo not drawn) [Example 16, N-(p-chlorobenzhydryl)-N'-[2-{5-(3-methoxy-4-hydroxyphenyl)-2,4-pentadienoyl}aminoethyl]piperazine] is 8.3-fold lower in IC50: 500 nM for the first, 60 nM for the second.

First: COc1cc(/C=C/C(=O)NCCN2CCN(C(c3ccccc3)c3ccccc3)CC2)ccc1O [Example 2, N-benzhydryl-N'-[2-{3-(3-methoxy-4-β-hydroxyphenyl)-2-propenoyl}aminoethyl]piperazine]
Second: COc1cc(/C=C/C(=O)NCCCN2CCN(C(c3ccccc3)c3ccccc3)CC2)ccc1O [Example 34]
The IC50 of the first is 2-fold higher: 600 nM for the first, 300 nM for the second. The second is the more potent here.

Compared with CC/C=C\C/C=C\C/C=C\CCCCCCCC(=O)NCCCCNC(=O)/C=C/c1ccc(O)c(OC)c1 [Example 3, N-[3-(3-methoxy-4-hydroxyphenyl)-2-propenoyl]-N'-[9,12,15-octadecatrienoyl]-1,4-diaminobutan], CC/C=C\C/C=C\C/C=C\CCCCCCCC(=O)NCCCCNC(=O)/C=C/C=C/c1ccc(O)c(OC)c1 [Example 19, N-{5-(3-methoxy-4-hydroxyphenyl)-2,4-pentadienoyl}-N'-9,12,15-octadecatrienoyl-1,4-diaminobutane] is 4.5-fold lower in IC50: 900 nM for the first, 200 nM for the second.

Compared with COc1cc(/C=C/C(=O)NCCCCNC(=O)/C=C/c2ccc(O)c(OC)c2)ccc1O [Example 4, N,N'-bis-{3-(3-methoxy-4-hydroxyphenyl)-2-propenoyl}-1,4-diaminobutane], COc1cc(/C=C/C=C/C(=O)NCCCCNC(=O)/C=C/C=C/c2ccc(O)c(OC)c2)ccc1O [Example 14, N,N'-di{5-(3-methoxy-4-hydroxyphenyl)-2,4-pentadienoyl}-1,4-diaminobutane] is 20-fold lower in IC50: 2000 nM for the first, 100 nM for the second. The second is the more potent here.

Going from CC(=O)OCc1cnc(C)c(O)c1CNC(=O)/C=C/c1ccc(O)c(O)c1 [Example 5, N-caffeoyl-o-acetylpyridoxane] to COc1cc(/C=C/C=C/C(=O)NCc2c(CO)cnc(C)c2O)ccc1O [Example 17], the IC50 rises from 1000 nM to 4000 nM (4-fold). The first is the more potent here.

Going from CC/C=C\C/C=C\C/C=C\C/C=C\C/C=C\C/C=C\CCC(=O)NCCCCNC(=O)/C=C/c1ccc(O)c(O)c1 [Example 6, N-[3-(3,4-dihydroxyphenyl)-2-propenoyl]-N'-[4,7,10,13,16,19-docosahexaenoyl]1,4-diaminobutane] to CC/C=C\C/C=C\C/C=C\C/C=C\C/C=C\C/C=C\CCC(=O)NCCCCNC(=O)/C=C/C=C/c1ccc(O)c(O)c1 [Example 22, N-5-(3,4-dihydroxyphenyl)-2,4-pentadienoyl-N'-4,7,10,13,16,19-docosahexaenoyl-1,4-diaminobutane], the IC50 falls from 60 nM to 40 nM (1.5-fold).

Compared with O=C(/C=C/c1ccc(O)c(O)c1)NCCCCNC(=O)/C=C/c1ccc(O)c(O)c1 [Example 7, N,N'-bis-[(3,4-dihydroxyphenyl)-2-propenoyl]-1,4-diaminobutane], O=C(/C=C/C=C/c1ccc(O)c(O)c1)NCCCCNC(=O)/C=C/C=C/c1ccc(O)c(O)c1 [Example 21, N,N'-di[5-(3,4-dihydroxyphenyl)-2,4-pentadienoyl]-1,4-diaminobutane] is 17-fold lower in IC50: 500 nM for the first, 30 nM for the second.

First: O=C(/C=C/c1ccc(O)c(O)c1)N1CCN(C(c2ccccc2)c2ccccc2)CC1 [Example 8, N-benzhydryl-N'-{(3,4-dihydroxyphenyl)-2-propenoyl}-piperazine]
Second: O=C(/C=C/C=C/c1ccc(O)c(O)c1)N1CCN(C(c2ccccc2)c2ccccc2)CC1 [Example 26]
The IC50 of the first is 2.5-fold higher: 100 nM for the first, 40 nM for the second. The second is the more potent here.

First: O=C(/C=C/c1ccc(O)c(O)c1)NCCN1CCN(C(c2ccccc2)c2ccccc2)CC1 [Example 9, N-benzhydryl-N'-[2-{3-(3,4-dihydroxyphenyl)-2-propenoyl}-aminoethyl]piperazine]
Second: O=C(/C=C/c1ccc(O)c(O)c1)NCCCN1CCN(C(c2ccccc2)c2ccccc2)CC1 [Example 37, N-benzhydryl-N'-[{3-(3,4-dihydroxyphenyl)-2-propenoyl}-aminopropyl]piperazine]
The IC50 of the first is 3.3-fold higher: 100 nM for the first, 30 nM for the second. The second is the more potent here.

O=C(/C=C/c1ccc(O)c(O)c1)Nc1cc(Cl)ccc1O [Example 10, N-{3-(3,4-dihydroxyphenyl)-2-propenoyl}-5-chloro-2-hydroxyaniline] and O=C(/C=C/c1ccc(O)c(O)c1)Nc1ccccc1O [Example 11, N-{3-(3,4-dihydroxyphenyl)-2-propenoyl}-o-aminophenol] are within 1.5-fold of each other in IC50: 30 nM for the first, 40 nM for the second.

Compared with O=C(/C=C/c1ccc(O)c(O)c1)NCCN1CCN(C(c2ccccc2)c2ccc(Cl)cc2)CC1 (stereo not drawn) [Example 12, N-(p-chlorobenzhydryl)-N'-[2-{3-(3,4-dihydroxyphenyl)-2-propenoyl}aminoethyl]piperazine], O=C(/C=C/C=C/c1ccc(O)c(O)c1)NCCN1CCN(C(c2ccccc2)c2ccc(Cl)cc2)CC1 (stereo not drawn) [Example 28] is 8-fold lower in IC50: 80 nM for the first, 10 nM for the second.

First: COc1cc(/C=C/C=C/C(=O)Nc2ccccc2C(=O)O)ccc1O [Example 13, N-5-(3-methoxy-4-hydroxyphenyl)-2,4-pentadienoylanthranilic acid]
Second: O=C(/C=C/C=C/c1ccc(O)c(O)c1)Nc1ccccc1C(=O)O [Example 24, N-5-(3,4-dihydroxyphenyl)-2,4-pentadienoylanthranilic acid]
The IC50 of the first is 6-fold higher: 600 nM for the first, 100 nM for the second. The second is the more potent here.

Going from COc1cc(/C=C/C=C/C(=O)N2CCN(C(c3ccccc3)c3ccccc3)CC2)ccc1O [Example 15, 1-benzhydryl-4-{5-(3-methoxy-4-hydroxyphenyl)-2,4-pentadienoyl}piperazene] to COc1cc(/C=C/C=C/C(=O)NCCCN2CCN(C(c3ccccc3)c3ccccc3)CC2)ccc1O [Example 38, N-[3-[5-(3-methoxy-4-hydroxyphenyl)-2,4-pentadienoyl]aminopropyl]-N'-benzhydrylpiperazine], the IC50 rises from 90 nM to 200 nM (2.2-fold). The first is the more potent here.

Compared with COc1cc(/C=C/C=C/C(=O)NCCCCNC(C)=O)ccc1O [Example 18, N-{5-(3-methoxy-4-hydroxyphenyl)-2,4-pentadienoyl}-N'-acetyl-1,4-diaminobutane], CC(=O)NCCCCNC(=O)/C=C/C=C/c1ccc(O)c(O)c1 [Example 20, N-{5-(3,4-dihydroxyphenyl)-2,4-pentadienoyl}-N'-acetyl-1,4-diaminobutane] is 6-fold lower in IC50: 6000 nM for the first, 1000 nM for the second. The second is the more potent here.

First: CC/C=C\C/C=C\C/C=C\CCCCCCCC(=O)NCCCCNC(=O)/C=C/C=C/c1ccc(O)c(O)c1 [Example 23, N-5-(3,4-dihydroxyphenyl)2,4-pentadienoyl-N'-9,12,15-octadecatrienoyl-1,4-diaminobutane]
Second: COc1cc(/C=C/C(=O)NCCCCNC(=O)c2ccccc2N)ccc1O [Example 35, N-3-[3-methoxy-4-hydroxy]pyenyl-2-butenoyl-N'-(2-amino)benzoylptolesine]
The IC50 of the first is 1000-fold lower: 20 nM for the first, 20000 nM for the second. The first is the more potent here.

Compared with O=C(/C=C/C=C/c1ccc(O)c(O)c1)Nc1ccc(O)cc1 [Example 25, N-5-(3,4-dihydroxyphenyl)-2,4-pentadienoylaminophenol], O=C(/C=C/C=C/c1ccc(O)c(O)c1)NCCN1CCN(C(c2ccccc2)c2ccccc2)CC1 [Example 27, N-benzhydryl-N'-[2-{5-(3,4-dihydroxyphenyl)-2,4-pentadienoyl}aminoethyl]piperazine] is 11-fold lower in IC50: 80 nM for the first, 7 nM for the second.

COc1cc(/C=C/C(=O)NCCN2CCN(C(=O)c3ccccc3N)CC2)ccc1O [Example 36, N-(o-aminobenzoyl)-N'-[2-[3-[3-methoxy-4-hydroxyphenyl)-2-propenoyl]aminoethyl]piperazine] showed an IC50 of 200000 nM.
